Experimental data taken from patent US20150079168A1 (Keryx Biopharmaceuticals, Inc., priority 2012, published 2015).
Like-named read-outs stand apart in the source and are kept apart here.

Assays:
[1] = BET active surface area; format: physicochemical
From the text: BET theory explains the physical adsorption of gas molecules onto a solid surface. The theory serves as the basis for the measurement of the specific surface area of a material. This theory allows the calculation of surface areas of materials in a very accurate manner and is thus capable of distinguishing differences between separate preparations of what would otherwise appear to be the same material. For example, activated carbon is a form of carbon that has been processed to make it extremely porous and thus to have a very large surface area. Activated carbon has been experimentally determined, using calculations derived from BET theory, to have a surface area of around 3000 m^2 g^−1.

[2] = tested on: patients with end-stage renal disease (ESRD) on dialysis; test: Three-period trial of ferric citrate as phosphate binder: 52-week randomized, open-label, active control Safety Assessment Period; format: in vivo, human
Description: This trial was a three-period, multicenter, safety and efficacy clinical trial.
Patients were followed on their randomized assignment for safety assessments over 52 weeks.
Calcium acetate 667 mg capsules and sevelamer carbonate 800 mg tablets were used and were supplied by Keryx Biopharmaceuticals, Inc. (Keryx) for the duration of the trial.
Serum phosphorus and calcium were checked at Visit 5 (Week 1), and every two weeks during the first 12 weeks after Visit 4 (Randomization Visit), and monthly for the rest of the Safety Assessment Period. During the Efficacy Assessment Period, serum phosphorus and calcium were drawn weekly. These values guided study drug administration. While on study drug, the use of other phosphate binders was not permitted. […] The titration of calcium acetate and sevelamer carbonate throughout the 52-week Safety Assessment Period were according to the current package inserts for these agents and/or at the discretion of the site PI.
Patients took study drug orally with or within one hour of meals or snacks. […] The PI or designee at each site dispensed the study drug to the patient and instructed the patient on how to administer it. It was recognized that some patients required a different distribution in pills in a given day due to snacks or missed meals.
Serum phosphorus and calcium were performed at Screening (Visit 0); weekly during the Washout Period after Visit 1 (Week −2); at Visit 4 (Randomization Visit); at Visits 5 (Week 1), 6 (Week 2), 7 (Week 4), 8 (Week 6), 9 (Week 8), 10 (Week 10), 11 (Week 12), 12 (Week 16), 13 (Week 20), 14 (Week 24), 15 (Week 28), 16 (Week 32), 17 (Week 36), 18 (Week 40), 19 (Week 44), 20 (Week 48), and 21 (Week 52) of the 52-week Safety Assessment Period; and at Visits 22 (Week 53), 23 (Week 54), 24 (Week 55) and 25 (Week 56) of the Efficacy Assessment Period. […]
The efficacy analyses were based on Full Analysis (FA) population that consisted of all patients who took at least one dose of study medication and provided baseline and at least one post-baseline efficacy assessment. The safety analyses were based on safety population that was consistent of all patients who took at least one dose of study medication.
There were two unique and distinct baseline assessments. The baseline for the Safety Assessment Period was the Randomization Visit (Visit 4) and was defined as “Week-0-baseline.” The baseline for the Efficacy Assessment Period was the last visit of the Safety Assessment Period (Visit 21. Week 52) and was defined as “study-baseline.”

[3] = Week 12, ANCOVA, Day-0 baseline covariate

ferric citrate [Batch No. 35103]
BET Active Surface Area [1]: 29.1 m^2/g

ferric citrate [RFS-12-1]
BET Active Surface Area [1]: 0.61 m^2/g
BET Active Surface Area ([1]; Table 1, unit not given): 0.61

ferric citrate [STM-182-1]
BET Active Surface Area ([1]; Table 1, unit not given): 19.85

ferric citrate [STM-134-1]
BET Active Surface Area ([1]; Table 1, unit not given): 16.17

ferric citrate [Batch No. 35102]
BET Active Surface Area [1]: 30.6 m^2/g

sevelamer carbonate
Calcium, Mean (SD) ([2]; Baseline): 9.056 (0.7291) MG/DL
Calcium, Median ([2]; Baseline): 9.150 mg/dL
Product Of Calcium And Phosphorus, Mean (SD) ([2]; Baseline): 68.0872 (16.29)
Product Of Calcium And Phosphorus, Median ([2]; Baseline): 66.2700
Phosphorus, Mean (SD) ([2]; Baseline (Table 12)): 7.51 (1.633) MG/DL
Phosphorus, Median ([2]; Baseline (Table 12)): 7.40 mg/dL
Calcium, Change from Baseline, Mean (SD) ([2]; Week 12): 0.175 (0.7509) MG/DL
Calcium, Change from Baseline, Median ([2]; Week 12): 0.100 mg/dL
Calcium, Mean (SD) ([2]; Week 12): 9.231 (0.7210) MG/DL
Calcium, Median ([2]; Week 12): 9.400 mg/dL
Product Of Calcium And Phosphorus, Change from Baseline, Mean (SD) ([2]; Week 12): −20.0621 (19.17)
Product Of Calcium And Phosphorus, Change from Baseline, Median ([2]; Week 12): −19.8500
Product Of Calcium And Phosphorus, Mean (SD) ([2]; Week 12): 48.0251 (14.37)
Product Of Calcium And Phosphorus, Median ([2]; Week 12): 46.2800
Phosphorus, Change from Baseline, Mean (SD) ([2]; Week 12 (Table 12)): −2.28 (2.169) MG/DL
Phosphorus, Change from Baseline, Median ([2]; Week 12 (Table 12)): -2.45 mg/dL
Phosphorus, Mean (SD) ([2]; Week 12 (Table 12)): 5.23 (1.713) MG/DL
Phosphorus, Median ([2]; Week 12 (Table 12)): 5.00 mg/dL
Calcium, LS Mean (SE) [2, 3]: 9.15 (0.08) MG/DL
Product Of Calcium And Phosphorus, LS Mean (SE) [2, 3]: 47.52 (1.50)
Phosphorus, LS Mean (SE) ([2]; Week 12, ANCOVA, Day-0 baseline covariate (Table 12)): 5.22 (0.17) MG/DL

ferric citrate [Batch No. 35106]
BET Active Surface Area [1]: 28.5 m^2/g

ferric citrate [Batch No. 35105]
BET Active Surface Area [1]: 31.5 m^2/g
